Results reported in PubChem BioAssay (NCI).
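Cells were grown in 96-well plates and exposed to each compound for 48 hours at five concentrations; endpoints were interpolated linearly between bracketing concentrations, or set to the highest concentration if not reached. GI50 marks 50% less growth. TGI is the concentration that stops growth completely.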

Key:
Assay in all cases: DTP human tumour cell line panel, 48 h
RPMI-8226 leukemia = tested on: RPMI-8226 leukemia
HT29 colon = tested on: HT29 colon
OVCAR-5 ovarian = tested on: OVCAR-5 ovarian
NCI-H23 lung = tested on: NCI-H23 lung
SNB-19 CNS = tested on: SNB-19 CNS
OVCAR-3 ovarian = tested on: OVCAR-3 ovarian
SF-295 CNS = tested on: SF-295 CNS
NCI-H226 lung = tested on: NCI-H226 lung
BT-549 breast = tested on: BT-549 breast
SN12C renal = tested on: SN12C renal

Row | Structure (SMILES) | TGI (RPMI-8226 leukemia) [µM] | TGI (HT29 colon) [µM] | TGI (OVCAR-5 ovarian) [µM] | TGI (NCI-H23 lung) [µM] | TGI (SNB-19 CNS) [µM] | TGI (OVCAR-3 ovarian) [µM] | TGI (SF-295 CNS) [µM] | TGI (NCI-H226 lung) [µM] | TGI (BT-549 breast) [µM] | TGI (SN12C renal) [µM] | GI50 (RPMI-8226 leukemia) [nM] | GI50 (HT29 colon) [nM] | GI50 (OVCAR-5 ovarian) [nM] | GI50 (NCI-H23 lung) [nM] | GI50 (SNB-19 CNS) [µM] | GI50 (OVCAR-3 ovarian) [nM] | GI50 (SF-295 CNS) [µM] | GI50 (NCI-H226 lung) [nM] | GI50 (BT-549 breast) [nM] | GI50 (SN12C renal) [nM]
1 | O=C(C#Cc1ccccc1)C1=Cc2ccccc2OC1 | 58.7 | 5.02 | 15 | 5.47 | 29.6 | 5.35 | 48.3 | 8.36 | 5.16 | > 100 | – | – | – | – | – | – | – | – | – | –
2 | Clc1ccc2nc(CI)c(CI)nc2c1 | 8.25 | 19.6 | 19.5 | 25.8 | > 59.4 | 7.14 | 36.8 | > 38 | 5.58 | 8.62 | 2620 | 3740 | 6980 | 7370 | 33.2 | 3020 | 15.4 | 10400 | 2110 | 2940
3 | Cc1c(Cl)cccc1NC(=O)/C=C/c1ccccc1 | > 100 | > 100 | > 100 | > 100 | > 100 | > 100 | > 100 | > 100 | > 100 | > 100 | – | – | – | – | – | – | – | – | – | –
4 | N#C/C(=N\Nc1ccccc1)C(=O)Nc1cc(-c2ccccc2)nn1-c1ccccc1 | 39.2 | 17.3 | > 100 | 60.5 | > 100 | 33.2 | > 100 | > 100 | 6.47 | > 100 | 1800 | 3200 | 3390 | 2730 | 3.6 | 3240 | 3.14 | 2800 | 2200 | 2740
5 | C[C@]12CC[C@H]3[C@@H](CC4SC(N)=NC45C/C(=N/NC(N)=O)CC[C@]35C)[C@@H]1CCC2=O (stereo not given in full) | 1.37 | 3.73 | 3.19 | 3.32 | 3.62 | 3.44 | 3.03 | 4.91 | 8.91 | 3.45 | 300 | 1880 | 1710 | 1780 | 1.87 | 1870 | 1.61 | 2090 | 2840 | 1890
6 | C[n+]1c2ccccc2nc2ccccc21 | 16.3 | 12 | 3.56 | 2.34 | 16.8 | 1.19 | 4.19 | 9.47 | 10.8 | 3.41 | 343 | 1760 | 1660 | 670 | 4.03 | 338 | 1.54 | 2630 | 2260 | 1630
7 | O=C(/C=C1\C(=O)N(Cc2ccccc2)c2ccccc21)c1ccc(OCCN2CCCCC2)cc1 | 4.72 | 3.36 | 3.6 | 14.5 | 5.99 | 3.2 | 25.9 | 39.7 | 4.05 | 4.03 | 2070 | 1820 | 1760 | 3470 | 2.26 | 1750 | 12.7 | 16800 | 2070 | 1900
